Calls of active or inactive are those of the source.

Experiment [1] concerns the target T1, Mannose-6-phosphate isomerase (Homo sapiens, UniProt P34949).
T1 sequence (P34949 whole entry): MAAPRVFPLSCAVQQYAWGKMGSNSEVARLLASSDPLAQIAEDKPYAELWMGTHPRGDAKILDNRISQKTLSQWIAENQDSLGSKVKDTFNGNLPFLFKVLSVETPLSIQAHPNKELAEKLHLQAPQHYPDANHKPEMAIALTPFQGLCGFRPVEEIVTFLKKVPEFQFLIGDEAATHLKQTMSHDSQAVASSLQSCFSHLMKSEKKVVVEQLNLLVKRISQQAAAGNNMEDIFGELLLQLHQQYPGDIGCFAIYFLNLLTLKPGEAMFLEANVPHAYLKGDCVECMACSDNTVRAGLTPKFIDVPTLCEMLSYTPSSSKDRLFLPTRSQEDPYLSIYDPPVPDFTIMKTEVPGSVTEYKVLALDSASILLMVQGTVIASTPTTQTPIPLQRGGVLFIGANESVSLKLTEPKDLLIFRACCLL
Description: MPI enzyme activity inhibition – biochemical, fluorescence intensity, coupled assay, primary screen (AID 1209).

In experiment [2] the target is T1, Mannose-6-phosphate isomerase. Description: MPI inhibition at elevated mannose 6-phosphate – biochemical, fluorescence intensity, high mannose 6-phosphate, primary screen (AID 1220).
Experiment [3] addresses Neuropeptide Y receptor type 1 (Homo sapiens, UniProt P25929). The experiment is classed as functional.
Experiment [4] concerns the target Luciferin 4-monooxygenase (Photinus pyralis, UniProt P08659). Kind of experiment: inhibition of purified Photinus pyralis luciferase – biochemical, luminescence, dose response (AID 1891).
Experiment [5] can be described thus: Luminescence Cell-Based Dose Confirmation HTS to Identify Inhibitors of Platelet Dense Granule Release. [Related pubchem assays: 1663 (Primary HTS), 1678 (Summary of Project)]. The experiment is classed as functional.
The target of experiment [6] is Neuropeptide Y receptor type 2 (Homo sapiens, UniProt P49146). The experiment is classed as functional, cell-based.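 Note: HEK293 cells expressing the receptor and a CNG channel; stimulus was NPY near EC95 followed by isoproterenol to raise cAMP; antagonist potency measured as restoring cAMP signal that NPY suppresses.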
Neuropeptide Y receptor type 2, sequence (P49146 whole entry): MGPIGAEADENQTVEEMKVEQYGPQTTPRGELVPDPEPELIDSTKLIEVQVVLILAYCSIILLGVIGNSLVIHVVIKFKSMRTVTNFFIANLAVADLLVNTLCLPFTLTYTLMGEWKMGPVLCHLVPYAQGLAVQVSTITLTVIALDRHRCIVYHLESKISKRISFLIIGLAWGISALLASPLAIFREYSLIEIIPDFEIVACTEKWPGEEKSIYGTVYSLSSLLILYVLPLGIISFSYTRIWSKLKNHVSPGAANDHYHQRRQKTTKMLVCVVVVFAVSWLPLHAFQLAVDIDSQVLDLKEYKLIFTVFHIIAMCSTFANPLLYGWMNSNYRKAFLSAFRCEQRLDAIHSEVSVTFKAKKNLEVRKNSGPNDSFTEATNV
The next experiment relates to Streptococcus. Description: Luminescence Microorganism-Based Dose Response Follow up to Identify Compounds Cytotoxic to Streptococcus. [Related pubchem assays: 1677 (Project Summary), 1915, 1914, 1902 (Retest at Dose), 1900 (Counter Screen), 1662 (Primary HTS)]. The experiment is classed as functional, organism-based.
Experiment [7] can be described thus: Counterscreen for IDE inhibitors: Luminescence-based cell-based high throughput dose response assay to identify compounds that are cytotoxic to HEK cells. [Related pubchem assays: 434962 (Primary screen (IDE inhibitors in singlicate)), 449730 (Counterscreen (Cytotoxicity in triplicate)), 435028 (Confirmation (IDE inhibitors in triplicate)) …. Particulars: HEK293. The experiment is classed as functional. For orientation: A counterscreen serves to expose hits that act by an unwanted route or on another target.

Another experiment deals with T2, Insulin-degrading enzyme (Homo sapiens, UniProt P14735).
T2 sequence (P14735 whole entry): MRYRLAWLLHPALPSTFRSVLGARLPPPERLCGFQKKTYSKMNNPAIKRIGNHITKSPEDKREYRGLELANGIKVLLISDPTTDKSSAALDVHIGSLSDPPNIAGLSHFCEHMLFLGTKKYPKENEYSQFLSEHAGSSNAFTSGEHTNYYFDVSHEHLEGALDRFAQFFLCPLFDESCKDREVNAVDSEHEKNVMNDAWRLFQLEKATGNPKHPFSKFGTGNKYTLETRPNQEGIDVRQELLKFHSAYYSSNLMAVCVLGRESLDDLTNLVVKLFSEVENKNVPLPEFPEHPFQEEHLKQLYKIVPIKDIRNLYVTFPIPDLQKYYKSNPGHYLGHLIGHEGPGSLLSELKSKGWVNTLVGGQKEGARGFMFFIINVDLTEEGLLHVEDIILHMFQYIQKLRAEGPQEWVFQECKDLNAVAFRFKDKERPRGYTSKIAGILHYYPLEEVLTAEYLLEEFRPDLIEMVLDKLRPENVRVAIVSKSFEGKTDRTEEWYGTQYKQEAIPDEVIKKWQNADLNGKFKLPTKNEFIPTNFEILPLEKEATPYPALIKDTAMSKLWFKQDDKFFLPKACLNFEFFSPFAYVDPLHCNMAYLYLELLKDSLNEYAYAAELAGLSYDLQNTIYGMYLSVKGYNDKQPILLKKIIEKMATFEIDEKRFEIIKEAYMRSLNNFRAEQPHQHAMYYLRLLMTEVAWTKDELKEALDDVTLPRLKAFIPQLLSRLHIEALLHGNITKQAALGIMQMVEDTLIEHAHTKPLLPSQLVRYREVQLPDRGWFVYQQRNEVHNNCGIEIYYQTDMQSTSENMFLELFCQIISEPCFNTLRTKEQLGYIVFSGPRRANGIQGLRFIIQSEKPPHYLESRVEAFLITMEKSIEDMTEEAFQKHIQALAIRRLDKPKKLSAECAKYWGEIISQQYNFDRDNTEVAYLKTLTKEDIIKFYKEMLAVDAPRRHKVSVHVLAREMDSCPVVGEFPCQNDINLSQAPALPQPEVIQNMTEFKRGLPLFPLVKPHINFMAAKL
Kind of experiment: Dose Response: Fluorescence polarization-based cell-based high throughput dose response assay for inhibitors of insulin-degrading enzyme (IDE). [Related pubchem assays: 434962 (Primary screen (IDE inhibitors in singlicate)), 449730 (Counterscreen (Cytotoxicity in triplicate)), 435028 (Confirmation (IDE inhibitors in triplicate)), 434984 (Summary …. The experiment is classed as functional. (Polarisation of emitted light reports the rotation of a fluorescent probe.)

The target in a further experiment is T3, Protein skinhead-1 (Caenorhabditis elegans, UniProt P34707).
T3 sequence (P34707 whole entry): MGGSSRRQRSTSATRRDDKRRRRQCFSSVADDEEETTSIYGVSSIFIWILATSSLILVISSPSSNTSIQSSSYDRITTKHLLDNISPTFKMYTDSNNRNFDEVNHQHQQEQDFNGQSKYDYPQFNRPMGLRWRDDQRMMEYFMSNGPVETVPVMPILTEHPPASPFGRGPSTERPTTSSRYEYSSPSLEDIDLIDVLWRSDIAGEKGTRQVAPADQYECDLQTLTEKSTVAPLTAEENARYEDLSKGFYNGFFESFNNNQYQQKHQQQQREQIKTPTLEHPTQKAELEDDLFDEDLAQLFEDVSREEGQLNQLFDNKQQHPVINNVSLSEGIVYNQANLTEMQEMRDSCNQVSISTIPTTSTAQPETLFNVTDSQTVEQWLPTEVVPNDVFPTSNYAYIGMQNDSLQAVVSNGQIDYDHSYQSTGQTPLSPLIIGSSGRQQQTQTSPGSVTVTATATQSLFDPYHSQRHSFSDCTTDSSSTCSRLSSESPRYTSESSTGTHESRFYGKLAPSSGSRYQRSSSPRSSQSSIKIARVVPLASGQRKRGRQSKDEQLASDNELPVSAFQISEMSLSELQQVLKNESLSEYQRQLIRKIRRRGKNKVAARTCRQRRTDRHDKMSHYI
The experiment is classed as functional.

Neuropeptide Y receptor type 1, sequence (P25929 whole entry): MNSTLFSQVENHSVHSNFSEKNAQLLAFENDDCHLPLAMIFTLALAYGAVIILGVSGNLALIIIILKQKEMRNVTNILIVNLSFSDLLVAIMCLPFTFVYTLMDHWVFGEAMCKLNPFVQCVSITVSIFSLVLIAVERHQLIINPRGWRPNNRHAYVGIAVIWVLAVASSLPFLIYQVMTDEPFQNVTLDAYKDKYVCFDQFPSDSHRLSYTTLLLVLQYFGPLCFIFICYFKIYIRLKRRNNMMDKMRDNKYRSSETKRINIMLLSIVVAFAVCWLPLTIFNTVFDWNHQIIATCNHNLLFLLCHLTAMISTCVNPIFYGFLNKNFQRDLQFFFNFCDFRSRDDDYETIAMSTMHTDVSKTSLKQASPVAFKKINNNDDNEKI
Luciferin 4-monooxygenase, sequence (P08659 whole entry): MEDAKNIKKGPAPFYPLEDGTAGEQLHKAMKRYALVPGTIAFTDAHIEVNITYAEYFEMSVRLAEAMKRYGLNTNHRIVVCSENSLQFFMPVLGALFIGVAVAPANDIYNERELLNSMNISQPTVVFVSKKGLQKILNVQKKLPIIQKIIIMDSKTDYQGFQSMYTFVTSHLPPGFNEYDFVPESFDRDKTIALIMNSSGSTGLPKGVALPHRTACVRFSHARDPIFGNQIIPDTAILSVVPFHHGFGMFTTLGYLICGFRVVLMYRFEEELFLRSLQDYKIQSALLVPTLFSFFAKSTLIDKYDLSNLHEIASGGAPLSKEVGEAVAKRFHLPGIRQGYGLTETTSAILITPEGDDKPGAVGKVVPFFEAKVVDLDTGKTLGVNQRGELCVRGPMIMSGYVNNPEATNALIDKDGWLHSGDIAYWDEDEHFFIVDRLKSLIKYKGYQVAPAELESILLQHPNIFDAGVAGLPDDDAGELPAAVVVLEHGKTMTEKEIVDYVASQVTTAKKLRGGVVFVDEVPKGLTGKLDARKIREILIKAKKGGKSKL

Usually IC50 stands for the concentration needed to halve the response being measured. For `CC1(C)Oc2ccc3ccc(=O)oc3c2-c2cnoc21`, the IC50 in [1] and in experiment [2] was > 50 µM (not active) each time.

The EC50 is the concentration at which the effect is half-maximal. Consider `Cc1ccc(-c2cc(C(=O)Nc3ccc4c(c3)OCCO4)c3ccccc3n2)cc1`, for which the IC50 in experiment [3] was 5.01 µM (active); in experiment [6] it was 5.35 µM (active). The EC50 in experiment [4] is 1.06 µM (active); in [5] it was 16.9 µM (active).

In the case of `O=C(CSc1ccccc1)N1c2ccccc2Sc2ccccc21`, the EC50 in the experiment on Streptococcus is 239 µM (active).

For `CC(OC(=O)/C(C#N)=C/c1ccc(N(C)C)cc1)C(=O)N(C)c1ccccc1` (stereo not given), the IC50 in [7] was 40.3 µM (not active); at Insulin-degrading enzyme, 21.4 µM (not active); at Protein skinhead-1, > 100 µM (inactive).

These data come from ChEMBL document CHEMBL1201862, “PubChem BioAssay data set” (2004).
